This note sets out measurements from PMC3969243, “A PIP5 Kinase Essential for Efficient Chemotactic Signaling” (Current Biology, 2014).

The target of experiment [1] is T1, PikI (Dictyostelium discoideum, UniProt Q55GN6, T262A).
T1 construct: gene DDB_G0267588
The following applies: product PI(4,5)P2.

The target in experiment [2] is T2, PikI (Dictyostelium discoideum, UniProt Q55GN6, T262E).
T2 construct: gene DDB_G0267588
The following applies: product PI(4,5)P2; phosphomimetic.

Experiment [3] has as its target T3, PikI (Dictyostelium discoideum, UniProt Q55GN6).
T3 construct: gene DDB_G0267588
The following applies: product PI(4,5)P2.

T1 sequence (Q55GN6 whole entry T262A): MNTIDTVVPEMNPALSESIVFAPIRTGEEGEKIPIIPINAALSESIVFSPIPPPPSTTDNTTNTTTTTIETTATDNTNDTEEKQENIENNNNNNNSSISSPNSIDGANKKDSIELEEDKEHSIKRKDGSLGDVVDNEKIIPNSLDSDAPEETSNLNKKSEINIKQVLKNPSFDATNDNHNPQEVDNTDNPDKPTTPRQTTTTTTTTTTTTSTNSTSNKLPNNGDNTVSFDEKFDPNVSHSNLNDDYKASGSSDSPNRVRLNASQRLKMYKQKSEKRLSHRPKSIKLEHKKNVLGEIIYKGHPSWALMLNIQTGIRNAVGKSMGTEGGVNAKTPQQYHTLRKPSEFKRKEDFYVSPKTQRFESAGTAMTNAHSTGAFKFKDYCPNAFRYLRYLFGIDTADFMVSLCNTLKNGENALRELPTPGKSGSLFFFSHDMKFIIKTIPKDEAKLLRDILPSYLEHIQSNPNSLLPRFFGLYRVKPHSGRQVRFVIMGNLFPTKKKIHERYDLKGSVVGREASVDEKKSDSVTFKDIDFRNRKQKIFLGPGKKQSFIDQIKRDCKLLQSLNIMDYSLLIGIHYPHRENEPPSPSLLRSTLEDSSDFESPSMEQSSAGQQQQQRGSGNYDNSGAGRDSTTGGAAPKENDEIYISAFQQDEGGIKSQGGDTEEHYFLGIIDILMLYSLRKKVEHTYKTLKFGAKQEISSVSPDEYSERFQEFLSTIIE
T2 sequence (Q55GN6 whole entry T262E): as the sequence (Q55GN6 whole entry T262A) above, with A262E counted along it
T3 sequence (Q55GN6 whole entry): as the sequence (Q55GN6 whole entry T262A) above, with A262T counted along it

On to PI(4)P, for which the values for the Km in experiment [1], in experiment [2] and in experiment [3] were 4.6 ± 2.87 µM, 6.39 ± 3.69 µM and 5.74 ± 3.18 µM, respectively.

The term Km denotes the substrate concentration at which the rate is half of its maximum.
